We go through 65 molecules from patent publication US12507703B2, “Methods, devices and compositions for preserving human milk” (The Trustees of Princeton University, priority 2023, dated 2025).

Values joined by “and” are separate entries in the source; they are usually repeats but may differ in a detail not shown here. Identical values can stand only once. Where a SMILES comes first, the peptide text is derived from it.

The first experiment deals with lipase. Briefly: Lipase/lipolysis assay (EnzChek Lipase Substrate, quenched BODIPY-fatty acid conjugate) on stored human milk. Also: test concentration or dose not given here.
Conditions: not given
With `O=C([O-])[C@@H](O)CO.[Na+]` [L-Glyceric acid (sodium)], the “Lipase (RFU)” value came out at 822.8712 RFU.

For the molecule `C=C(C)[C@H]1C=C[C@@](C)(O)CC1` [cis-Isolimonenol], the “Lipase (RFU)” value is 930.1567 RFU.

Take `O=C(O)C(O)Cc1c[nH]c2ccccc12` (centres unmarked) [Indolelactic acid]: the “Lipase (RFU)” value was found to be 641.0066 RFU.

Consider Heparan Sulfate, for which the “Lipase (RFU)” value stood at 1097.057 RFU.

With `Cc1cc(O[C@@H]2O[C@H](CO)[C@@H](O)[C@H](O)[C@H]2O)c2c(c1)C(=O)c1cc(O)cc(O)c1C2=O` [Emodin-8-glucoside], the “Lipase (RFU)” value is on record as 1174.326 RFU.

For `CCCCCCCCCCCCCCCCCCCCCC(=O)O[C@H]1CC[C@@]2(C)C(=CC[C@H]3[C@@H]4CC[C@H]([C@H](C)CCCC(C)C)[C@@]4(C)CC[C@@H]32)C1` [Cholesteryl behenate], the “Lipase (RFU)” value is reported as 935.1979 RFU.

In the case of Rebaudioside A, the “Lipase (RFU)” value came to 1278.993 RFU.

With `COc1cc(OC)c2c(=O)cc(-c3ccc(OC)c(OC)c3)oc2c1` [5,7,3′,4′-Tetramethoxyflavone], the “Lipase (RFU)” value came out at 1023.427 RFU.

Consider `OC[C@H]1O[C@@H]2O[C@H]3[C@H](O)[C@@H](O)[C@@H](O[C@H]4[C@H](O)[C@@H](O)[C@@H](O[C@H]5[C@H](O)[C@@H](O)[C@@H](O[C@H]6[C@H](O)[C@@H](O)[C@@H](O[C@H]7[C@H](O)[C@@H](O)[C@@H](O[C@H]8[C@H](O)[C@@H](O)[C@@H](O[C@H]1[C@H](O)[C@H]2O)O[C@@H]8CO)O[C@@H]7CO)O[C@@H]6CO)O[C@@H]5CO)O[C@@H]4CO)O[C@@H]3CO` [β-Cyclodextrin], for which the “Lipase (RFU)” value was 886.2621 RFU.

As to `NC(N)=O` [Urea], the “Lipase (RFU)” value is 934.3458 RFU and 864.3039 RFU.

As for `O=Cc1ccc[nH]1` [Pyrrole-2-carboxaldehyde], the “Lipase (RFU)” value is reported as 882.4774 RFU.

Consider `O=C(O)c1ccc(O)c(O)c1` [Protocatechuic acid], for which the “Lipase (RFU)” value is 981.5941 RFU and 972.5566 RFU.

With `CC(C)=C1CC[C@@H](C)CC1=O` [Pulegone], the “Lipase (RFU)” value was 791.7693 RFU and 1146.187 RFU.

For `Oc1ccc2c(c1)OCO2` [Sesamol], the “Lipase (RFU)” value is listed as 995.7089 RFU.

For the molecule `O.O.O=c1c(O)c(-c2ccc(O)c(O)c2)oc2cc(O)cc(O)c12` [Quercetin (dihydrate)], the “Lipase (RFU)” value turned out to be 1081.937 RFU.

Regarding `CC(CCC1(O)OC2CC3C4CCC5CC(OC6OC(CO)C(O)C(O)C6OC6OC(CO)C(O)C(O)C6O)CCC5(C)C4CCC3(C)C2C1C)COC1OC(CO)C(O)C(O)C1O` (centres unmarked) [Officinalisinin I], the “Lipase (RFU)” value is given as 937.9671 RFU.

Take `N[C@@H](CS)C(=O)NCC(=O)O` [L-Cysteinyl-Glycine]: the “Lipase (RFU)” value came out at 708.9877 RFU.

For the molecule `COc1ccc([C@@H]2CC(=O)c3c(O)cc(O[C@@H]4O[C@H](CO)[C@@H](O)[C@H](O)[C@H]4O)cc3O2)cc1` [Isosakuranin], the “Lipase (RFU)” value worked out at 864.5248 RFU.

Medicarpin: the “Lipase (RFU)” value came to 622.3141 RFU.

With `C[C@@H]1O[C@@H](OC[C@H]2O[C@@H](Oc3c(-c4ccc(O)cc4)oc4cc(O)cc(O)c4c3=O)[C@H](O)[C@@H](O)[C@@H]2O)[C@H](O)[C@H](O)[C@H]1O` [Nicotiflorin], the “Lipase (RFU)” value was determined as 810.1075 RFU.

On to `OC[C@H](O)C(O)[C@@H](O)CO` [L-Arabitol], for which the “Lipase (RFU)” value stood at 912.8862 RFU.

In the case of `CC(C)=CCC/C(C)=C/CC/C(C)=C/CC[C@]1(C)CCc2cc(O)cc(C)c2O1` [δ-Tocotrienol], the “Lipase (RFU)” value is on record as 1061.05 RFU.

Take `COc1cc(C=CC(=O)O)cc(OC)c1OC` [3,4,5-Trimethoxycinnamic acid]: the “Lipase (RFU)” value is given as 1076.789 RFU.

Regarding `Nc1ncnc2c1ncn2[C@@H]1O[C@H](COP(=O)(O)O)[C@@H](O)[C@H]1O.O` [Adenosine 5′-monophosphate monohydrate], the “Lipase (RFU)” value is listed as 920.9967 RFU.

Consider `C/C(=C\CNc1ncnc2c1ncn2[C@@H]1O[C@H](CO)[C@@H](O)[C@H]1O)CO` [trans-Zeatinriboside], for which the “Lipase (RFU)” value came out at 823.084 RFU.

On to (−)-Limonene, for which the “Lipase (RFU)” value was 914.6466 RFU and 836.6929 RFU.

As to `C=C1CC[C@]2(C)CC[C@]3(C)[C@H](CC[C@@H]4[C@@]5(C)CC[C@H](O)C(C)(C)[C@@H]5CC[C@]43C)[C@H]2[C@@H]1C` [Taraxasterol], the “Lipase (RFU)” value is reported as 974.5848 RFU.

Notoginsenoside Fe: the “Lipase (RFU)” value came to 902.3283 RFU.

Consider `CC(C)C(=O)O[C@H](CC(=O)O)C[N+](C)(C)C.[Cl-]` [Isobutyryl-L-carnitine (chloride)], for which the “Lipase (RFU)” value was found to be 1069.653 RFU.

With `O=C1CC(C(=O)O)c2c1oc(=O)c1cc(O)c(O)c(O)c21` (centres unmarked) [Brevifolincarboxylic acid], the “Lipase (RFU)” value was 760.1752 RFU.

As to Alliin, the “Lipase (RFU)” value is reported as 782.3552 RFU.

Regarding `CC(=O)OC(C)(C)/C=C/C(=O)[C@](C)(O)[C@H]1[C@H](O)C[C@@]2(C)[C@@H]3CC=C4[C@@H](C=C(O)C(=O)C4(C)C)[C@]3(C)C(=O)C[C@]12C` [Cucurbitacin E], the “Lipase (RFU)” value is 641.6726 RFU.

Regarding `CC1O[C@@H](OC[C@H]2O[C@@H](Oc3c(-c4ccc(O)cc4)oc4cc(O)cc(O)c4c3=O)C(O[C@@H]3O[C@H](C)[C@H](O)C(O)C3O)C(O)[C@H]2O)C(O)[C@@H](O)[C@H]1O` (some centres unmarked) [Mauritianin], the “Lipase (RFU)” value stood at 860.4015 RFU.

Consider Carbinoxamine maleate salt, for which the “Lipase (RFU)” value was determined as 807.8179 RFU.

For `Cc1cccc(C=O)c1` [m-Tolualdehyde], the “Lipase (RFU)” value turned out to be 859.0901 RFU.

`OC[C@H]1O[C@@H](OC[C@H]2O[C@@H](O)[C@H](O)[C@@H](O)[C@@H]2O)[C@H](O)[C@@H](O)[C@@H]1O` [β-Gentiobiose]: the “Lipase (RFU)” value came out at 997.1115 RFU.

As to `c1ccc2c(c1)Nc1ccccc1S2` [Phenothiazine], the “Lipase (RFU)” value was 725.1361 RFU.

As to `NCc1[nH]cc(CCC(=O)O)c1CC(=O)O` [Porphobilinogen], the “Lipase (RFU)” value amounted to 1154.849 RFU.

`OC[C@H]1O[C@H](OC[C@H]2O[C@H](O[C@H]3[C@H](O)[C@@H](O)C(O)O[C@@H]3CO)[C@H](O)[C@@H](O)[C@@H]2O)[C@H](O)[C@@H](O)[C@@H]1O` (stereo partly drawn) [D-Panose]: the “Lipase (RFU)” value came out at 982.4149 RFU.

For the molecule `CC(C)=CCC[C@](C)(O)[C@H]1CC[C@]2(C)[C@@H]1[C@H](O)C[C@@H]1[C@@]3(C)CC[C@H](O)C(C)(C)[C@@H]3[C@@H](O[C@@H]3O[C@H](CO)[C@@H](O)[C@H](O)[C@H]3O[C@@H]3OC[C@@H](O)[C@H](O)[C@H]3O)C[C@]12C` [Notoginsenoside R2], the “Lipase (RFU)” value is on record as 955.4855 RFU.

For the molecule `O=C(O)[C@@H]1C[C@@H](O)CN1` [trans-4-Hydroxy L-Proline], the “Lipase (RFU)” value is 608.0856 RFU.

Regarding Isobergapten, the “Lipase (RFU)” value amounted to 1247.074 RFU.

On to `CC(=O)NCCCC[C@H](N)C(=O)O` [Nepsilon-Acetyl-L-lysine], for which the “Lipase (RFU)” value was 1188.891 RFU.

Turning to `CCCCC1OC(=O)c2ccccc21` (centres unmarked) [Butylphthalide], the “Lipase (RFU)” value worked out at 989.7778 RFU.

In the case of `CC(C)=CCc1c(O)c(CC=C(C)C)c2oc3c(O)cccc3c(=O)c2c1O` [Compound 8-Deoxygartanin], the “Lipase (RFU)” value is on record as 1168.142 RFU.

As to `COC(=O)C1=CO[C@@H](O[C@@H]2O[C@H](CO)[C@@H](O)[C@H](O)[C@H]2O)[C@H]2[C@@H]1C(=O)C[C@@H]2C` [Verbenalin], the “Lipase (RFU)” value is given as 1051.385 RFU.

On to `Cc1cc(O)c2c(c1)C(=O)c1cccc(O[C@@H]3O[C@H](CO)[C@@H](O)[C@H](O)[C@H]3O)c1C2=O` [Chrysophanol 8-O-glucoside], for which the “Lipase (RFU)” value is reported as 988.4419 RFU.

In the case of `Nc1ncnc2c1ncn2[C@@H]1O[C@H](CSCC[C@H](N)C(=O)O)[C@@H](O)[C@H]1O` [SAH], the “Lipase (RFU)” value was found to be 641.7279 RFU.

`NC(N)=NCCC[C@H](NC(=O)[C@@H](N)Cc1ccc(O)cc1)C(=O)O` [Kyotorphin]: the “Lipase (RFU)” value stood at 988.5967 RFU.

Regarding `O=c1cc(-c2ccc(O)c(O)c2)oc2cc(O[C@@H]3O[C@H](CO)[C@@H](O)[C@H](O)[C@H]3O)c(O)c(O)c12` [6-Hydroxyluteolin 7-glucoside], the “Lipase (RFU)” value came to 1135.118 RFU.

Consider `CC(=O)[C@@]1(O)CC[C@H]2[C@@H]3CC=C4C[C@@H](O)CC[C@]4(C)[C@H]3CC[C@@]21C` [Compound 17a-Hydroxypregnenolone], for which the “Lipase (RFU)” value is given as 861.6395 RFU.

For `CC(C)CCC[C@@H](C)[C@H]1CC[C@H]2C3=CC=C4C[C@@H](O)CC[C@]4(C)[C@H]3CC[C@]12C` [Compound 7-Dehydrocholesterol], the “Lipase (RFU)” value is recorded as 820.8412 RFU.

In the case of `NC(=O)[C@@H]1CCCN1C(=O)[C@H](Cc1ccccc1)NC(=O)[C@@H]1CCCN1C(=O)[C@@H](N)Cc1ccc(O)cc1` [Morphiceptin] (H-YPFP-NH2), the “Lipase (RFU)” value was found to be 1251.045 RFU.

Turning to Eicosadienoic acid, the “Lipase (RFU)” value is on record as 795.3404 RFU.

With `COc1cc(CCCO)ccc1O` [Dihydroconiferyl alcohol], the “Lipase (RFU)” value was 1331.121 RFU.

Take `O=C([O-])[O-].[Ca+2]` [Calcium carbonate]: the “Lipase (RFU)” value was determined as 646.797 RFU.

As to `COc1ccc(C)cc1` [Compound 4-Methylanisole, 4-Methylanisole], the “Lipase (RFU)” value was 864.3612 RFU and 916.5396 RFU.

Take Thiamine nitrate: the “Lipase (RFU)” value is 1094.609 RFU and 1092.499 RFU.

Regarding `CC(C)[C@@H](C)[C@@H](O)[C@H](O)[C@@H](C)[C@H]1CC[C@H]2[C@@H]3COC(=O)[C@H]4C[C@H](O)[C@H](O)C[C@]4(C)[C@H]3CC[C@]12C` [Epibrassinolide], the “Lipase (RFU)” value came out at 830.2794 RFU.

Turning to `Nc1nc2c(ncn2[C@H]2C[C@H](O)[C@@H](CO)O2)c(=O)[nH]1.O` [2′-Deoxyguanosine monohydrate], the “Lipase (RFU)” value is 782.4513 RFU.

In the case of `NCCP(=O)(O)O` [(2-Aminoethyl)phosphonic acid], the “Lipase (RFU)” value is reported as 914.5342 RFU.

For `CCCCCC1=C(C)CCC1=O` [Dihydrojasmone], the “Lipase (RFU)” value was 884.3631 RFU.

Consider `CC1=C2[C@H]3OC(=O)[C@@H](C)[C@@H]3CC[C@@]2(C)C=CC1=O` [Santonin], for which the “Lipase (RFU)” value was 895.7689 RFU.

For Xanthan gum, the “Lipase (RFU)” value came to 873.106 RFU.

Still in this experiment, the particulars now being: (calcium).
As to `N[C@@H](CC(=O)O)C(=O)O.[Ca]` [Aspartic acid (calcium)], the “Lipase (RFU)” value was 952.0587 RFU and 1027.013 RFU.
